# Measured values: patent publication US7601746B2 (Shionogi & Co., Ltd., priority 2003, dated 2009)
# Molecular target: T1, human TPO receptor (hTPOR) (Homo sapiens, UniProt P40238)
# T1 construct: expressed in transfected cells; host or cells: BaF-B03 (murine IL-3 dependent cell line)
# T1 sequence (P40238 26-635): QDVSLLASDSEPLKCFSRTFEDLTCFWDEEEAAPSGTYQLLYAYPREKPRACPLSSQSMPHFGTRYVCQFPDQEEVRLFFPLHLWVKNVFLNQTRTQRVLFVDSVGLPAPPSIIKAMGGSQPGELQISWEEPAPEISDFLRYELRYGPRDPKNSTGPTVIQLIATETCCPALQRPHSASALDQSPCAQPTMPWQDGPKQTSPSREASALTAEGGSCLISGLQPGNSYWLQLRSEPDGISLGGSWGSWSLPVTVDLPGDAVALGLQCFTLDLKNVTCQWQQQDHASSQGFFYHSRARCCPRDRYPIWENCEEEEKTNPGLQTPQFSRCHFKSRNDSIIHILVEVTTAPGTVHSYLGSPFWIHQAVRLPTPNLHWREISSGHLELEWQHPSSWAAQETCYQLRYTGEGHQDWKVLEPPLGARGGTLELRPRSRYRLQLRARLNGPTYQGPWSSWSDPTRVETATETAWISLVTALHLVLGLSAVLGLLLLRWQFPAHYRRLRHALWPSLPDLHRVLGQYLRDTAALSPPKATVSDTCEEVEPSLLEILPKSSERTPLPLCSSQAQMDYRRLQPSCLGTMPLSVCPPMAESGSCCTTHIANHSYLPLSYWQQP
# Assay: Thrombopoietic activity: proliferation of TPO dependent BaF/hTPOR cells (WST-1, absorbance at 450 nm)
# Type: cell-based
# Conditions: 20 h + 4 h WST-1, ED50 = half concentration of the concentration showing the maximum thrombopoietic activity, Table 1
# Procedure, shortened: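 Proliferation read-out: WST-1 absorbance at 450 nm after 20 h compound exposure plus 4 h reagent, using IL-3-deprived BaF/hTPOR cells (5×10^4 per well) dependent on human TPO receptor signalling. ED50 defined as half the concentration producing maximal activity.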
row,SMILES,EC50
1,"CCCCCCOCc1cccc(-c2csc(NC(=O)c3cc(Cl)c(/C=C(\C)C(=O)O)c(Cl)c3)n2)c1OC [Compound B1993, (E)-3-{2,6-dichloro-4-[4-(3-hexyloxymethyl-2-methyloxyphenyl)thiazol-2-ylcarbamoyl]phenyl}-2-methylacrylic acid]",13.9 nM
2,"CCCCCCOCc1cccc(-c2csc(NC(=O)c3cc(Cl)c(/C=C(\OC)C(=O)O)c(Cl)c3)n2)c1OC [Compound B1994, (Z)-3-{2,6-dichloro-4-[4-(3-hexyloxymethyl-2-methyloxyphenyl)thiazol-2-ylcarbamoyl]phenyl}-2-methyloxyacrylic acid]",14.2 nM
3,"CCCCOCc1cccc(-c2csc(NC(=O)c3cc(F)c(/C=C(\C)C(=O)O)c(F)c3)n2)c1OC [Compound B1997, (E)-3-{4-[4-(3-butyloxymethyl-2-methyloxyphenyl)thiazol-2-ylcarbamoyl]-2,6-difluorophenyl}-2-methylacrylic acid]",15.5 nM
4,"CCCCCCCOc1cccc(-c2csc(NC(=O)c3cc(F)c(/C=C(\C)C(=O)O)c(F)c3)n2)c1OC [Compound B1998, (E)-3-{2,6-difluoro-4-[4-(3-heptyloxy-2-methyloxyphenyl)thiazol-2-ylcarbamoyl]phenyl}-2-methylacrylic acid]",8.35 nM
5,"COc1c(COCC(C)(C)C)cccc1-c1csc(NC(=O)c2cc(Cl)c(/C=C(\C)C(=O)O)c(Cl)c2)n1 [Compound B2021, (E)-3-(2,6-dichloro-4-{4-[3-(2,2-dimethylpropyloxymethyl)-2-methyloxyphenyl]thiazol-2-ylcarbamoyl}phenyl)-2-methylacrylic acid]",6.09 nM
6,"CO/C(=C\c1c(Cl)cc(C(=O)Nc2nc(-c3cccc(COCC(C)(C)C)c3OC)cs2)cc1Cl)C(=O)O [Compound B2022, (Z)-3-(2,6-dichloro-4-{4-[3-(2,2-dimethylpropyloxymethyl)-2-methyloxyphenyl]thiazol-2-ylcarbamoyl}phenyl)-2-methyloxyacrylic acid]",15.6 nM
7,"CCC(CC)COCc1cccc(-c2csc(NC(=O)c3cc(F)c(/C=C(\OC)C(=O)O)c(F)c3)n2)c1OC [Compound B2024, (Z)-3-(4-{4-[3-(2-ethylbutyloxymethyl)-2-methyloxyphenyl]thiazol-2-ylcarbamoyl}-2,6-difluorophenyl)-2-methyloxyacrylic acid]",9.96 nM
8,"CCC(CC)COCc1cccc(-c2csc(NC(=O)c3cc(Cl)c(/C=C(\C)C(=O)O)c(Cl)c3)n2)c1OC [Compound B2025, (E)-3-(2,6-dichloro-4-{4-[3-(2-ethylbutyloxymethyl)-2-methyloxyphenyl]thiazol-2-ylcarbamoyl}phenyl)-2-methylacrylic acid]",3.2 nM
9,"CCC(CC)COCc1cccc(-c2csc(NC(=O)c3cc(Cl)c(/C=C(\OC)C(=O)O)c(Cl)c3)n2)c1OC [Compound B2026, (Z)-3-(2,6-dichloro-4-{4-[3-(2-ethylbutyloxymethyl)-2-methyloxyphenyl]thiazol-2-ylcarbamoyl}phenyl)-2-methyloxyacrylic acid]",12.6 nM
10,"COc1c(COCCC(C)C)cccc1-c1csc(NC(=O)c2cc(Cl)c(/C=C(\C)C(=O)O)c(Cl)c2)n1 [Compound B2028, (E)-3-(2,6-dichloro-4-{4-[2-methyloxy-3-(3-methylbutyloxymethyl)phenyl]thiazol-2-ylcarbamoyl}phenyl)-2-methylacrylic acid]",11.4 nM

# Other lines, results leading:
row,EC50,SMILES
1,13.1 nM,"CCCCCCOCc1cccc(-c2csc(NC(=O)c3cc(F)c(/C=C(\C)C(=O)O)c(F)c3)n2)c1OC [Compound B1992, (E)-3-{2,6-difluoro-4-[4-(3-hexyloxymethyl-2-methyloxyphenyl)thiazol-2-ylcarbamoyl]phenyl}-2-methylacrylic acid]"
2,10.9 nM,"CCCCOCc1cccc(-c2csc(NC(=O)c3cc(Cl)c(/C=C(\C)C(=O)O)c(Cl)c3)n2)c1OC [Compound B1995, (E)-3-{4-[4-(3-butyloxymethyl-2-methyloxyphenyl)thiazol-2-ylcarbamoyl]-2,6-dichlorophenyl}-2-methylacrylic acid]"
3,13.2 nM,"CCCCCCCOc1cccc(-c2csc(NC(=O)c3cc(Cl)c(/C=C(\C)C(=O)O)c(Cl)c3)n2)c1OC [Compound B1999, (E)-3-{2,6-dichloro-4-[4-(3-heptyloxy-2-methyloxyphenyl)thiazol-2-ylcarbamoyl]phenyl}-2-methylacrylic acid]"
4,19.4 nM,"CCCCCCCOc1cccc(-c2csc(NC(=O)c3cc(Cl)c(/C=C(\OC)C(=O)O)c(Cl)c3)n2)c1OC [Compound B2001, (Z)-3-{2,6-dichloro-4-[4-(3-heptyloxy-2-methyloxyphenyl)thiazol-2-ylcarbamoyl]phenyl}-2-methyloxyacrylic acid]"
5,13.9 nM,"CCCCCCCCOc1cccc(-c2csc(NC(=O)c3cc(F)c(/C=C(\C)C(=O)O)c(F)c3)n2)c1OC [Compound B2004, (E)-3-{2,6-difluoro-4-[4-(2-methyloxy-3-octyloxyphenyl)thiazol-2-ylcarbamoyl]phenyl}-2-methylacrylic acid]"
6,10.3 nM,"CCCCCCCCOc1cccc(-c2csc(NC(=O)c3cc(Cl)c(/C=C(\C)C(=O)O)c(Cl)c3)n2)c1OC [Compound B2005, (E)-3-{2,6-dichloro-4-[4-(2-methyloxy-3-octyloxyphenyl)thiazol-2-ylcarbamoyl]phenyl}-2-methylacrylic acid]"
7,6.45 nM,"CCC(CC)COCc1cccc(-c2csc(NC(=O)c3cc(F)c(/C=C(\C)C(=O)O)c(F)c3)n2)c1OC [Compound B2023, (E)-3-(4-{4-[3-(2-ethylbutyloxymethyl)-2-methyloxyphenyl]thiazol-2-ylcarbamoyl}-2,6-difluorophenyl)-2-methyl acrylic acid]"
8,12.6 nM,"COc1c(COCCC(C)C)cccc1-c1csc(NC(=O)c2cc(F)c(/C=C(\C)C(=O)O)c(F)c2)n1 [Compound B2027, (E)-3-(2,6-difluoro-4-{4-[2-methyloxy-3-(3-methylbutyloxymethyl)phenyl]thiazol-2-ylcarbamoyl}phenyl)-2-methylacrylic acid]"
9,2.91 nM,"CCCCCCCCCC(OC)c1cccc(-c2csc(NC(=O)c3cc(F)c(/C=C(\C)C(=O)O)c(F)c3)n2)c1OCC (centres unmarked) [Compound B2099, (E)-3-(4-{4-[2-ethyloxy-3-(1-methyloxydecyl)phenyl]thiazol-2-ylcarbamoyl}-2,6-difluorophenyl)-2-methylacrylic acid]"

# Same assay, conditions: 20 h + 4 h WST-1, ED50 = half concentration of the concentration showing the maximum thrombopoietic activity, Table 2
row,EC50,SMILES
1,20.5 nM,"CCCCCCCOc1cccc(-c2csc(NC(=O)c3cc(F)c(/C=C(\OC)C(=O)O)c(F)c3)n2)c1OC [Compound B2000, (Z)-3-{2,6-difluoro-4-[4-(3-heptyloxy-2-methyloxyphenyl)thiazol-2-ylcarbamoyl]phenyl}-2-methyloxyacrylic acid]"
2,22.7 nM,"COc1c(CCOCCCCF)cccc1-c1csc(NC(=O)c2cc(Cl)c(/C=C(\C)C(=O)O)c(Cl)c2)n1 [Compound B2003, (E)-3-[2,6-dichloro-4-(4-{3-[2-(4-fluorobutyloxy)ethyl]-2-methyloxyphenyl}thiazol-2-ylcarbamoyl)phenyl]-2-methylacrylic acid]"
3,24.2 nM,"CO/C(=C\c1c(F)cc(C(=O)Nc2nc(-c3cccc(C(CCOC(C)C)OC)c3F)cs2)cc1F)C(=O)O (centres unmarked) [Compound B2012, (Z)-3-(2,6-difluoro-4-{4-[2-fluoro-3-(3-isopropyloxy-1-methyloxypropyl)phenyl]thiazol-2-ylcarbamoyl}phenyl)-2-methyloxyacrylic acid]"
4,23.5 nM,"COc1cccc(-c2csc(NC(=O)c3cc(Cl)c(/C=C(\C)C(=O)O)c(Cl)c3)n2)c1F [Compound B2018, (E)-3-{2,6-dichloro-4-[4-(2-fluoro-3-methyloxyphenyl)thiazol-2-ylcarbamoyl]phenyl}-2-methylacrylic acid]"
